Assay results as given in patent publication US4532254A, “Inhibitor of aldose reductase” (Kaken Pharmaceutical Co., Ltd., priority 1983, dated 1985).

What follows are compounds tested against T1, rat lens AR (Rattus norvegicus, UniProt P07943) (assay: Inhibition of rat lens aldose reductase (RLAR), NADPH oxidation at 340 nm). Conditions: 10^-5 M, read-out: Inhibition against enzyme activity (%).
T1 construct: Rat lenses were removed from eyes of rats of the Wistar strain; from tissue; host or cells: lens of Wistar rats; enzyme purified by ammonium sulfate, DEAE-Sephacel, Matrex gel red A and Sephadex G-75
Format: biochemical, rat (Wistar strain)
Protocol: (§1) The inhibitory activities against AR of LARI-1, LARI-2, LARI-3 and LARI-4 were determined according to the following method.
(§2) In Recipe Example, the followings were used. NADPH was purchased from the Oriental Yeast Co., Ltd. DL-Glyceraldehyde and quercitrin were purchased from Nakarai Chemicals, Ltd. DEAE-Sephacel and Sephadex G-75 were purchased from Pharmacia Fine Chemicals. Matrex gel red A was purchased from the Amicon Co. All other chemicals were of the highest grade commercially available.
(§3) Rat lenses were removed from eyes of rats of the Wistar strain weighing 200 to 250 g. Bovine eyes were obtained from a local abattoir, and the lenses were removed and frozen until needed.
(§4) Usually a 10^-3 M solution was prepared and diluted to the desired concentrations with propylene glycol. To the reaction mixture were added aliquots of the diluted solution to yield concentrations of 10^-8 M to 10^-5 M and a propylene glycol concentration of 1%.
(§5) AR assays were conducted according to the procedure of Hayman and Kinoshita (J. Biol. Chem. 240, p. 877 (1965)), except for the addition of ammonium sulfate instead of lithium sulfate to the reaction mixture. Assays were performed at 30° C. in 0.1M sodium phosphate buffer (pH 6.2) containing 0.4M ammonium sulfate, 10 mM DL-glyceraldehyde, 0.16 mM NADPH and the enzyme (0.010 to 0.016 unit) in a total volume of 1.0 ml. The effects of inhibitors on the enzyme activity were determined in the reaction mixture containing 10 μl. of each inhibitor solution at the desired concentrations. The blank reference to correct for non-specific reduction of NADPH contained all of the above compounds except DL-glyceraldehyde. The reaction was initiated by the addition of DL-glyceraldehyde, and the rate of NADPH oxidation was followed by recording the decrease in absorbance at 340 nm on a Gilford model 250 spectrophotometer.
(§6) BLAR and RLAR were purified according to the method of Inagaki et al (Archs Biochem. Biophys. 216, p. 337 (1982)). Briefly, a 40 to 75% ammonium sulfate fraction was subjected to chromatography on DEAE-Sephacel, followed by two column chromatographic steps, i.e. affinity chromatography using Matrex gel red A and gel filtration on Sephadex G-75.
(§7) The concentration of inhibitor required for eliciting a 50% inhibition (IC50) was determined according to the method of Kador et al (Docum. Ophthal. Proc. Series 18, p. 117 (1979)).
COc1c(O)c(OC)c2c(=O)cc(-c3ccc(O)c(O)c3)oc2c1OC [LARI-1, 3',4',6-trihydroxy-5,7,8-trimethoxyflavone] was tested, and the inhibition at 10 µM was 96%. COc1c(OC)c(OC)c2c(=O)cc(-c3ccc(O)cc3)oc2c1OC [LARI-2, 4'-hydroxy-5,6,7,8-tetramethoxyflavone] was tested, and the inhibition at 10 µM was 91%. COc1c(O)c(OC)c2c(=O)cc(-c3ccc(O)cc3)oc2c1OC [LARI-3, 4',6-dihydroxy-5,7,8-trimethoxyflavone] was tested, and the inhibition at 10 µM was 92%.

Same assay, conditions: 10^-6 M, read-out: Inhibition against enzyme activity (%)
For COc1c(O)c(OC)c2c(=O)cc(-c3ccc(O)c(O)c3)oc2c1OC [LARI-1, 3',4',6-trihydroxy-5,7,8-trimethoxyflavone], the inhibition at 1 µM was 92%. COc1c(OC)c(OC)c2c(=O)cc(-c3ccc(O)cc3)oc2c1OC [LARI-2, 4'-hydroxy-5,6,7,8-tetramethoxyflavone] gave an inhibition at 1 µM of 81%. COc1c(O)c(OC)c2c(=O)cc(-c3ccc(O)cc3)oc2c1OC [LARI-3, 4',6-dihydroxy-5,7,8-trimethoxyflavone] gave an inhibition at 1 µM of 74%.

Same assay, conditions: 10^-7 M, read-out: Inhibition against enzyme activity (%)
In the case of COc1c(O)c(OC)c2c(=O)cc(-c3ccc(O)c(O)c3)oc2c1OC [LARI-1, 3',4',6-trihydroxy-5,7,8-trimethoxyflavone], the inhibition at 0.1 µM is reported as 73%. COc1c(OC)c(OC)c2c(=O)cc(-c3ccc(O)cc3)oc2c1OC [LARI-2, 4'-hydroxy-5,6,7,8-tetramethoxyflavone] gave an inhibition at 0.1 µM of 44%. For COc1c(O)c(OC)c2c(=O)cc(-c3ccc(O)cc3)oc2c1OC [LARI-3, 4',6-dihydroxy-5,7,8-trimethoxyflavone], the inhibition at 0.1 µM was 36%.

Same assay, conditions: Table 2, IC50 in M multiplied by 10^6, read-out: IC50 (M) × 10^6
COc1c(O)c(OC)c2c(=O)cc(-c3ccc(O)c(O)c3)oc2c1OC [LARI-1, 3',4',6-trihydroxy-5,7,8-trimethoxyflavone] showed an IC50 of 3.6e-08 M. COc1c(OC)c(OC)c2c(=O)cc(-c3ccc(O)cc3)oc2c1OC [LARI-2, 4'-hydroxy-5,6,7,8-tetramethoxyflavone] gave an IC50 of 1.6e-07 M. In the case of COc1c(O)c(OC)c2c(=O)cc(-c3ccc(O)cc3)oc2c1OC [LARI-3, 4',6-dihydroxy-5,7,8-trimethoxyflavone], the IC50 is reported as 2.5e-07 M.

Same assay, conditions: read-out: IC50 (inhibition of RLAR)
Compound COc1c(O)c(OC)c2c(=O)cc(-c3ccc(O)c(O)c3)oc2c1OC [LARI-1, 3',4',6-trihydroxy-5,7,8-trimethoxyflavone] has an IC50 of 3.6e-08 M. In the case of COc1c(OC)c(OC)c2c(=O)cc(-c3ccc(O)cc3)oc2c1OC [LARI-2, 4'-hydroxy-5,6,7,8-tetramethoxyflavone], the IC50 is reported as 1.6e-07 M. Compound COc1c(O)c(OC)c2c(=O)cc(-c3ccc(O)cc3)oc2c1OC [LARI-3, 4',6-dihydroxy-5,7,8-trimethoxyflavone] has an IC50 of 2.5e-07 M.

What follows are compounds tested against T2, bovine lens AR (Bos taurus, UniProt P16116) (assay: Inhibition of bovine lens aldose reductase (BLAR), NADPH oxidation at 340 nm). Conditions: 10^-5 M, read-out: Inhibition against enzyme activity (%).
T2 construct: Bovine eyes were obtained from a local abattoir, and the lenses were removed and frozen until needed; from tissue; host or cells: bovine lens from a local abattoir; enzyme purified by ammonium sulfate, DEAE-Sephacel, Matrex gel red A and Sephadex G-75
Format: biochemical
Protocol: as §1, §2, §3, §4, §5, §6, §7
COc1c(O)c(OC)c2c(=O)cc(-c3ccc(O)c(O)c3)oc2c1OC [LARI-1, 3',4',6-trihydroxy-5,7,8-trimethoxyflavone] gave an inhibition at 10 µM of 100%. COc1c(OC)c(OC)c2c(=O)cc(-c3ccc(O)cc3)oc2c1OC [LARI-2, 4'-hydroxy-5,6,7,8-tetramethoxyflavone] gave an inhibition at 10 µM of 94%. For COc1c(O)c(OC)c2c(=O)cc(-c3ccc(O)cc3)oc2c1OC [LARI-3, 4',6-dihydroxy-5,7,8-trimethoxyflavone], the inhibition at 10 µM was 95%.

Same assay, conditions: 10^-6 M, read-out: Inhibition against enzyme activity (%)
Compound COc1c(O)c(OC)c2c(=O)cc(-c3ccc(O)c(O)c3)oc2c1OC [LARI-1, 3',4',6-trihydroxy-5,7,8-trimethoxyflavone] has an inhibition at 1 µM of 91%. Compound COc1c(OC)c(OC)c2c(=O)cc(-c3ccc(O)cc3)oc2c1OC [LARI-2, 4'-hydroxy-5,6,7,8-tetramethoxyflavone] has an inhibition at 1 µM of 80%. In the case of COc1c(O)c(OC)c2c(=O)cc(-c3ccc(O)cc3)oc2c1OC [LARI-3, 4',6-dihydroxy-5,7,8-trimethoxyflavone], the inhibition at 1 µM is reported as 70%.

Same assay, conditions: 10^-7 M, read-out: Inhibition against enzyme activity (%)
Work on COc1c(O)c(OC)c2c(=O)cc(-c3ccc(O)c(O)c3)oc2c1OC [LARI-1, 3',4',6-trihydroxy-5,7,8-trimethoxyflavone] yielded an inhibition at 0.1 µM of 35%. In the case of COc1c(OC)c(OC)c2c(=O)cc(-c3ccc(O)cc3)oc2c1OC [LARI-2, 4'-hydroxy-5,6,7,8-tetramethoxyflavone], the inhibition at 0.1 µM is reported as 24%. COc1c(O)c(OC)c2c(=O)cc(-c3ccc(O)cc3)oc2c1OC [LARI-3, 4',6-dihydroxy-5,7,8-trimethoxyflavone] showed an inhibition at 0.1 µM of 18%.

Same assay, conditions: Table 2, IC50 in M multiplied by 10^6
COc1c(O)c(OC)c2c(=O)cc(-c3ccc(O)c(O)c3)oc2c1OC [LARI-1, 3',4',6-trihydroxy-5,7,8-trimethoxyflavone] showed an IC50 of 180 nM. With COc1c(OC)c(OC)c2c(=O)cc(-c3ccc(O)cc3)oc2c1OC [LARI-2, 4'-hydroxy-5,6,7,8-tetramethoxyflavone] the IC50 was 290 nM. COc1c(O)c(OC)c2c(=O)cc(-c3ccc(O)cc3)oc2c1OC [LARI-3, 4',6-dihydroxy-5,7,8-trimethoxyflavone] showed an IC50 of 420 nM.
